According to patent US20230062119A1, “USE OF BIOMARKERS IN IDENTIFYING PATIENTS THAT WILL BE RESPONSIVE TO TREATMENT WITH A PRMT5 INHIBITOR” (Merck Sharp & Dohme LLC, priority 2019, published 2023):
Read-outs that look alike come from different tables or passages of the source.

Biological target: T1, Full-length (FL)-PRMT5-MEP50 enzyme complex (Homo sapiens, UniProt O14744)
T1 construct: Full-length (FL)-PRMT5-MEP50 enzyme complex (recombinant proteins from baculovirus-transfected Sf21 cells: FL-PRMT5; MW=73837 kDa and FL-MEP50; MW=38614); made in house; host or cells: baculovirus-transfected Sf21 insect cells
T1 sequence (O14744 whole entry): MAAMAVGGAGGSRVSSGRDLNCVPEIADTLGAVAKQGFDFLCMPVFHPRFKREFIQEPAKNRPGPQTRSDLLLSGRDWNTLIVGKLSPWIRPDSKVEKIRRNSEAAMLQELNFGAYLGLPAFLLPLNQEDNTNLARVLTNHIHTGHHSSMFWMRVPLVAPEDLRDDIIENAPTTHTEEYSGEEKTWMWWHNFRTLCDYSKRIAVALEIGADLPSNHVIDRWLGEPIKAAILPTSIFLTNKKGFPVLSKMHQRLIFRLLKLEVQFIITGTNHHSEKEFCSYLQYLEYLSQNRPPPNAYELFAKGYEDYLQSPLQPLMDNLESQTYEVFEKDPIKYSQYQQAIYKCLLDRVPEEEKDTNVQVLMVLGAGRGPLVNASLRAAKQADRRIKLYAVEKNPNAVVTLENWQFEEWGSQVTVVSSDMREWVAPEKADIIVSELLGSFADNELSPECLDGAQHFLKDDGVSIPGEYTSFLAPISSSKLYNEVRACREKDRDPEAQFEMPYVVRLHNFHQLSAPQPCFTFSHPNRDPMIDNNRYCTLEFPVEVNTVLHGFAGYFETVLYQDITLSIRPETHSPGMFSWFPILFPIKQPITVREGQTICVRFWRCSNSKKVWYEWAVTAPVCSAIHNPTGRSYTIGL
T1 sequence (Q9BQA1 whole entry partner): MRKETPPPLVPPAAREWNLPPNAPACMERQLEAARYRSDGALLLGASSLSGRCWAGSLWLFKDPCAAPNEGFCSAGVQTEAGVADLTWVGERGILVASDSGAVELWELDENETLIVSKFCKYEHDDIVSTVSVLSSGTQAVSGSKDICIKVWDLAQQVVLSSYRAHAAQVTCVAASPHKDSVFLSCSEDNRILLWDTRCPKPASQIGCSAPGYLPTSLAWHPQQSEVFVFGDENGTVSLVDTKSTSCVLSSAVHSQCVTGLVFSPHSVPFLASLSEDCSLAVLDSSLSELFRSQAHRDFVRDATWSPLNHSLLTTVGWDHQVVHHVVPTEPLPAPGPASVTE
Experiment: PRMT5-MEP50 Enzyme Methylation Assay
Type: biochemical
Details: 1.0 nM PRMT5-MEP50, 75 nM biotinylated peptide, 15 μM SAM
Description: PRMT5-MEP50 biochemical assay is a direct measurement of the methylation activity of the enzyme complex on a short peptide substrate derived from the N-terminus of H4 histone. Methylation experiment is performed with recombinant PRMT5-MEP50 protein complex. The assessment of inhibitory effect of small molecules is measured by the effectiveness of the compounds to inhibit this reaction (EC50).
In this assay, the potency (EC50) of each compound was determined from a twenty-point (1:2 serial dilution; top compound concentration of 100000 nM) titration curve using the following outlined procedure. To each well of a white ProxiPlus 384 well-plate, 100 nL of compound (1% DMSO in final assay volume of 10 μL) was dispensed, followed by the addition of 8 μL of 1× assay buffer (50 mM Bicine pH 8.0, 1 mM DTT, 0.004% Tween20, 0.01% BSA) containing 1.25 nM of Full-length (FL)-PRMT5-MEP50 enzyme complex (recombinant proteins from baculovirus-transfected Sf21 cells: FL-PRMT5; MW=[…] and FL-MEP50; MW=38614) and 1 μL of 150 μM S-(5′-Adenosyl)-L-Methionine Chloride (SAM). Plates were sealed and placed in a 37° C. humidified chamber for a 60 minutes pre-incubation with compound. Subsequently, each reaction was initiated by the addition of 1 μL 1× assay buffer containing 750 nM biotinylated H4R3(Mel) peptide. The final reaction in each well of 10 μL consists of 1.0 nM PRMT5-MEP50, 75 nM biotinylated-peptide, and 15 μM SAM. Methylation reactions proceeded for 150 minutes in a sealed plate at 37° C. Reactions were immediately quenched by the addition of 1 μL of 5% formic acid. Plates were then frozen and shipped to SAMDI™ Tech Inc. to determine the percent conversion from H4R3(Mel) to H4R3(Me2). Dose-response curves were generated by plotting percent effect (% product conversion; Y-axis) vs. Log 10 compound concentrations (X-axis). EC50 values were determined by non-linear regression according to models for either sigmoidal (4 parameters) or biphasic (7 parameters) dose-response curves.

[1] = one EC50: 4 parameters single site sigmoidal model, EC50 1: first value of 7 parameters biphasic model, read-out: Enzyme Methylation Assay (EC50 or EC50 1)
[2] = second EC50 of 7 parameters biphasic model, read-out: Enzyme Methylation Assay (EC50 2)

Row | Compound | EC50 [1] | EC50 [2]
1 | Nc1nc2cc(C[C@@H]3CC[C@@]4(O)[C@@H]3O[C@@H](n3ccc5c(N)nc(F)nc53)[C@@H]4O)ccc2cc1F [Example 45, (2R,3R,3aS,6S,6aR)-2-(4-amino-2-fluoro-7H-pyrrolo[2,3-d]pyrimidin-7-yl)-6-((2-amino-3-fluoroquinolin-7-yl)methyl)hexahydro-3aH-cyclopenta[b]furan-3,3a-diol] | 0.3 nM | 
2 | Cc1nc(N)c2ccn([C@@H]3O[C@@H]4[C@H](Cc5ccc6cc(Br)c(N)nc6c5)CC[C@]4(O)[C@H]3O)c2n1 [Example 61, (2R,3R,3aS,6S,6aR)-2-(4-amino-2-methyl-7H-pyrrolo[2,3-d]pyrimidin-7-yl)-6-((2-amino-3-bromoquinolin-7-yl)methyl)hexahydro-3aH-cyclopenta[b]furan-3,3a-diol] | 0.5 nM | 
3 | Cc1ncnc2c1ccn2[C@@H]1O[C@@H]2[C@@H](Oc3ccc4cc(C(F)F)c(N)nc4c3)CC[C@]2(O)[C@H]1O [Example 115, (2R,3R,3aS,6S,6aR)-6-((2-amino-3-(difluoromethyl)quinolin-7-yl)oxy)-2-(4-methyl-7H-pyrrolo[2,3-d]pyrimidin-7-yl)hexahydro-3aH-cyclopenta[b]furan-3,3a-diol] | 0.4 nM | 255 nM
4 | C[C@]1(O)[C@@H](O)[C@H](n2ccc3c(N)ncnc32)C[C@]1(O)CCc1ccc2cc(Br)c(N)nc2c1 [Example 118, (1R,2S,3S,4R)-1-(2-(2-amino-3-bromoquinolin-7-yl)ethyl)-4-(4-amino-7H-pyrrolo[2,3-d]pyrimidin-7-yl)-2-methylcyclopentane-1,2,3-triol] | 3.2 nM | 1590 nM
5 | C[C@]12O[C@@H](n3ccc4c(N)ncnc43)[C@H](O)[C@@]1(O)CC[C@H]2Cc1ccc2cc(F)c(N)nc2c1 [Example 121, (2R,3R,3aS,6S,6aR)-6-((2-amino-3-fluoroquinolin-7-yl)methyl)-2-(4-amino-7H-pyrrolo[2,3-d]pyrimidin-7-yl)-6a-methylhexahydro-3aH-cyclopenta[b]furan-3,3a-diol] | 0.4 nM | 
6 | C[C@@]1(O)[C@@H](CCc2ccc3cc(Br)c(N)nc3c2)C[C@@H](n2ccc3c(N)ncnc32)[C@@H]1O [Example 103, (1R,2S,3R,5S)-5-(2-(2-amino-3-bromoquinolin-7-yl)ethyl)-3-(4-amino-7H-pyrrolo[2,3-d]pyrimidin-7-yl)-1-methylcyclopentane-1,2-diol] | 0.4 nM | 40.7 nM
7 | Cc1ncnc2c1ccn2[C@@H]1O[C@@H]2[C@@H](Oc3ccc4cc(F)c(N)nc4c3)CC[C@]2(O)[C@H]1O [Example 86, (2R,3R,3aS,6S,6aR)-6-((2-amino-3-fluoroquinolin-7-yl)oxy)-2-(4-methyl-7H-pyrrolo[2,3-d]pyrimidin-7-yl)hexahydro-3aH-cyclopenta[b]furan-3,3a-diol] | 0.5 nM | 63.8 nM
8 | Nc1nc2c(F)c(C[C@@H]3CC[C@@]4(O)[C@@H]3O[C@@H](n3ccc5c(N)ncnc53)[C@@H]4O)ccc2cc1F [Example 20, (2R,3R,3aS,6S,6aR)-6-[(2-amino-3,8-difluoroquinolin-7-yl)methyl]-2-(4-amino-7H-pyrrolo[2,3-d]pyrimidin-7-yl)hexahydro-3aH-cyclopenta[b]furan-3,3a-diol] | 0.5 nM | 
9 | Cc1ncnc2c1ccn2[C@@H]1O[C@@H]2[C@@H](Oc3ccc4cc5c(nc4c3)NCC5)CC[C@]2(O)[C@H]1O [Example 89, (2R,3R,3aS,6S,6aR)-6-((2,3-dihydro-1H-pyrrolo[2,3-b]quinolin-7-yl)oxy)-2-(4-methyl-7H-pyrrolo[2,3-d]pyrimidin-7-yl)hexahydro-3aH-cyclopenta[b]furan-3,3a-diol] | 1.3 nM | 
10 | CC(C)(O)c1ncnc2c1ccn2[C@@H]1O[C@@H]2[C@@H](Oc3ccc4cc(Br)c(N)nc4c3)CC[C@]2(O)[C@H]1O [Example 78, (2R,3R,3aS,6S,6aR)-6-[(2-amino-3-bromoquinolin-7-yl)oxy]-2-[4-(2-hydroxypropan-2-yl)-7H-pyrrolo[2,3-d]pyrimidin-7-yl]hexahydro-3aH-cyclopenta[b]furan-3,3a-diol] | 13.3 nM | 
11 | CC(C)c1ncnc2c1ccn2[C@@H]1O[C@@H]2[C@H](Cc3ccc4cc(Br)c(N)nc4c3)CC[C@]2(O)[C@H]1O [Example 83, (2R,3R,3aS,6S,6aR)-6-((2-amino-3-bromoquinolin-7-yl)methyl)-2-(4-isopropyl-7H-pyrrolo[2,3-d]pyrimidin-7-yl)hexahydro-3aH-cyclopenta[b]furan-3,3a-diol] | 1.2 nM | 
12 | Nc1nc2cc(O[C@H]3CC[C@@]4(O)[C@@H]3O[C@@H](n3cc(F)c5c(N)ncnc53)[C@@H]4O)ccc2cc1Cl [Example 74, (2R,3R,3aS,6S,6aR)-6-((2-amino-3-chloroquinolin-7-yl)oxy)-2-(4-amino-5-fluoro-7H-pyrrolo[2,3-d]pyrimidin-7-yl)hexahydro-3aH-cyclopenta[b]furan-3,3a-diol] | 0.3 nM | 
13 | Nc1nc2cc(O[C@H]3CC[C@@]4(O)[C@@H]3O[C@@H](n3ccc5cncnc53)[C@@H]4O)ccc2cc1Br [Example 85, (2R,3R,3aS,6S,6aR)-6-((2-amino-3-bromoquinolin-7-yl)oxy)-2-(7H-pyrrolo[2,3-d]pyrimidin-7-yl)hexahydro-3aH-cyclopenta[b]furan-3,3a-diol] | 1.2 nM | 246 nM
14 | Cc1ncnc2c1ccn2[C@@H]1C[C@](C)(CCc2ccc3cc4c(nc3c2)NCC4)[C@@H](O)[C@H]1O [Example 110, (1S,2R,3S,5R)-3-(2-(2,3-dihydro-1H-pyrrolo[2,3-b]quinolin-7-yl)ethyl)-3-methyl-5-(4-methyl-7H-pyrrolo[2,3-d]pyrimidin-7-yl)cyclopentane-1,2-diol] | 0.9 nM | 

Further lines, results first:

Row | EC50 [1] | EC50 [2] | Compound
15 | 0.3 nM |  | Cc1cn([C@@H]2C[C@@H]3[C@H](Cc4ccc5cc(F)c(N)nc5c4)CC[C@]3(O)[C@H]2O)c2ncnc(N)c12 [Example 38, (1S,2R,3aR,4S,6aR)-4-((2-amino-3-fluoroquinolin-7-yl)methyl)-2-(4-amino-5-methyl-7H-pyrrolo[2,3-d]pyrimidin-7-yl)hexahydropentalene-1,6a(1H)-diol]
16 | 0.4 nM |  | Cc1ncnc2c1ccn2[C@@H]1C[C@@H]2[C@H](Cc3ccc4cc(Br)c(N)nc4c3)CC[C@]2(O)[C@H]1O [Example 19, (1S,2R,3aR,4S,6aR)-4-((2-amino-3-bromoquinolin-7-yl)methyl)-2-(4-methyl-7H-pyrrolo[2,3-d]pyrimidin-7-yl)hexahydropentalene-1,6a(1H)-diol]
17 | 0.3 nM |  | Cc1nc(N)c2ccn([C@@H]3C[C@@H]4[C@H](Cc5ccc6cc(Br)c(N)nc6c5)CC[C@]4(O)[C@H]3O)c2n1 [Example 37, (1S,2R,3aR,4S,6aR)-2-(4-amino-2-methyl-7H-pyrrolo[2,3-d]pyrimidin-7-yl)-4-((2-amino-3-bromoquinolin-7-yl)methyl)hexahydropentalene-1,6a(1H)-diol]
18 | 0.6 nM |  | Nc1nc2cc(C[C@@H]3CC[C@@]4(O)[C@@H]3C[C@@H](n3cc(F)c5c(N)ncnc53)[C@@H]4O)ccc2cc1F [Example 33, (1S,2R,3aR,4S,6aR)-4-((2-amino-3-fluoroquinolin-7-yl)methyl)-2-(4-amino-5-fluoro-7H-pyrrolo[2,3-d]pyrimidin-7-yl)hexahydropentalene-1,6a(1H)-diol]
19 | 0.5 nM |  | Cc1cn([C@@H]2C[C@@H]3[C@H](Cc4cc(F)c5cc(Cl)c(N)nc5c4)CC[C@]3(O)[C@H]2O)c2ncnc(N)c12 [Example 36, (1S,2R,3aR,4S,6aR)-4-[(2-amino-3-chloro-5-fluoroquinolin-7-yl)methyl]-2-(4-amino-5-methyl-7H-pyrrolo[2,3-d]pyrimidin-7-yl)hexahydropentalene-1,6a(1H)-diol]
20 | 0.5 nM |  | Nc1nc2cc(C[C@@H]3CC[C@@]4(O)[C@@H]3O[C@@H](n3cc(F)c5c(N)ncnc53)[C@@H]4O)ccc2cc1Cl [Example 68, (2R,3R,3aS,6S,6aR)-6-((2-amino-3-chloroquinolin-7-yl)methyl)-2-(4-amino-5-fluoro-7H-pyrrolo[2,3-d]pyrimidin-7-yl)hexahydro-3aH-cyclopenta[b]furan-3,3a-diol]
21 | 0.3 nM |  | Nc1nc2cc(C[C@@H]3CC[C@@]4(O)[C@@H]3O[C@@H](n3ccc5c(N)ncnc53)[C@@H]4O)ccc2cc1F [Example 124, (2R,3R,3aS,6S,6aR)-6-((2-amino-3-fluoroquinolin-7-yl)methyl)-2-(4-amino-7H-pyrrolo[2,3-d]pyrimidin-7-yl)hexahydro-3aH-cyclopenta[b]furan-3,3a-diol]
